Several values for one entry are separate records, joined by “and”; a condition that tells them apart may be missing. Identical values can stand only once.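 Method: 48-hour compound exposure of cells in 96-well plates, five concentrations, linear interpolation of endpoints. GI50: concentration for 50% inhibition of growth.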 Activity calls are given as the source filed them. No stated cut-off is given here; in the data, active = GI50 up to about 1.1 µM and inactive = higher.
Key:
Test in all cases: growth of human tumour cells (NCI), 48 h
[1] = test system: Hs-578T
[2] = test system: BT-549
[3] = test system: XF498
[4] = test system: HOP-18
[5] = test system: KM-20L2
[6] = test system: DMS-114
[7] = test system: M19-MEL
[8] = test system: LXFL 529
[9] = test system: RXF 631

SMILES	GI50 [1]	GI50 [2]	further results
CC(C)(CN1CCCCC1)C(=O)CC(SCCS(=O)(=O)O)c1ccc(Cl)c(Cl)c1 (stereo not drawn)	2.8 µM (inactive)	2.9 µM (inactive)	–
CCCCNS(=O)(=O)c1ccc(-c2ccc3c(c2)-c2ccc(S(=O)(=O)NCCCC)cc2S3(=O)=O)cc1	–	–	GI50 [3]: 10.3 µM (inactive); GI50 [4]: 20.7 µM (inactive); GI50 [5]: 4.15 µM (inactive); GI50 [6]: 7.52 µM (inactive); GI50 [7]: 21.5 µM (inactive); GI50 [8]: 13.2 µM (inactive)
C=CCO/N=C/c1cc(/N=C(/S)c2ccoc2C)ccc1Cl	24.4 µM (inactive)	16.2 µM (inactive)	–
CCN(CC)CCOc1ccc(C(O)(Cc2ccc(OC)cc2)c2ccccc2)cc1 (stereo not drawn)	–	–	GI50 [3]: 14 µM (inactive); GI50 [5]: 3.24 µM (inactive); GI50 [6]: 14.9 µM (inactive); GI50 [7]: 15.4 µM (inactive); GI50 [8]: 17 µM (inactive)
Nc1nc2sc3ccccc3c(=O)n2n1	–	–	GI50 [3]: > 100 µM (inactive); GI50 [4]: > 100 µM (inactive); GI50 [5]: > 100 µM (inactive); GI50 [6]: > 100 µM (inactive); GI50 [8]: > 100 µM (inactive)
CC1(C)C(=O)N(O)C(C)(C)N1N=O	–	> 10 µM (inactive)	–
COC(=O)[C@@H]1[C@@H](c2cccc(Cl)c2)[C@H](C(=O)OC)C2(C[C@@]1(C)O)NCCS2 (stereo partly drawn)	> 100 µM (inactive)	> 100 µM (inactive)	–
NC1CC(=O)c2c1sc(Cl)c2Cl (stereo not drawn)	–	> 100 µM (inactive)	–
O=C1c2ccccc2-c2nc(-c3cccs3)cc3c2c1nc1ccccc13	21.3 µM (inactive)	22 µM (inactive)	–
NC(CC(O)(c1ccccc1)c1ccccc1)c1ccccc1S (stereo not drawn)	20.3 µM (inactive)	14.7 µM (inactive)	–
CC1=CC(=O)CC2(C)CCC(C(C)CC(=O)CC(C)C)CC12OO (stereo not drawn)	46.9 µM (inactive) and 28.4 µM (inactive)	–	–
CCCCC(=O)Oc1ccc2c(C)cc(=O)oc2c1	> 100 µM (inactive)	> 100 µM (inactive)	–
Nc1ncnc2c1ncn2C1OC(CSC(F)(F)F)C(O)C1O (stereo not drawn)	–	–	GI50 [4]: > 100 µM (inactive); GI50 [5]: > 100 µM (inactive); GI50 [6]: > 100 µM (inactive); GI50 [7]: > 100 µM (inactive); GI50 [8]: > 100 µM (inactive)
Nc1ccc2nc(NCc3ccc(F)cc3)cnc2c1	–	–	GI50 [3]: > 100 µM (inactive); GI50 [5]: > 100 µM (inactive); GI50 [6]: 75.5 µM (inactive); GI50 [8]: > 100 µM (inactive)
CCN(CC)C(=O)c1cccc2c(OC)ccc(OC)c12	–	–	GI50 [4]: > 100 µM (inactive); GI50 [5]: > 100 µM (inactive); GI50 [6]: > 100 µM (inactive); GI50 [7]: > 100 µM (inactive); GI50 [8]: > 100 µM (inactive)
O=C(N/N=C\c1cccc2c([N+](=O)[O-])cccc12)Nc1ccccc1	13.2 µM (inactive)	8.95 µM (inactive)	–
O=C(n1c(=O)n(-c2ccc(Cl)cc2)c(=O)n1C(=O)C(Cl)(Cl)Cl)C(Cl)(Cl)Cl	> 100 µM (inactive)	66.5 µM (inactive)	–
COc1cc(C(=O)N(C(=S)OC23CC4CC(CC(C4)C2)C3)c2ccccc2)cc(OC)c1OC	27.4 µM (inactive)	33 µM (inactive)	–

SMILES	GI50 [1]	GI50 [2]	further results
Cc1ccc(C(C2C(=O)N(C)C(=O)N(C)C2=O)C(F)(F)C(=O)N(C)C)cc1 (stereo not drawn)	–	> 100 µM (inactive)	–
C=CCOC1OC(CO[Si](C)(C)C(C)(C)C)C(OCc2ccccc2)C(OCc2ccccc2)C1OCc1ccccc1 (stereo not drawn)	45.2 µM (inactive)	65 µM (inactive)	–
COC(=O)[C@@H](NC(=O)N(CCC#N)CCCN(C(=O)N[C@H](Cc1ccccc1)C(=O)OC)c1ccccc1)C(C)C	> 100 µM (inactive)	> 100 µM (inactive)	–
COC(=O)[C@@](C)(COC(=O)C(C)(C)C)NC(=O)OC(C)(C)C	–	> 100 µM (inactive)	–
COc1cccc(-c2cccc(SC)n2)n1	–	31.3 µM (inactive)	–
CC1(C)CN(CC(=O)O)CC(Cc2ccc(OCC(=O)O)cc2)N(CC(=O)O)CC(C)(C)SS1 (stereo not drawn)	> 100 µM (inactive)	> 100 µM (inactive)	–
CC(C)(C)OC(=O)N/N=C(/N)Cc1ccc(Cl)cc1	> 100 µM (inactive)	> 100 µM (inactive)	–
Cc1cc(O)ccc1C1(c2ccc(F)cc2)OC(=O)c2ccccc21 (stereo not drawn)	0.263 µM (active)	0.208 µM (active)	–
CC[C@H](C)[C@H]1NC(=O)[C@@H](NC(=O)[C@@H](CC(C)C)N(C)C(=O)C2CCCN2C(=O)[C@H](C)O)[C@@H](C)OC(=O)[C@@H]2Cc3ccccc3CN2C(=O)[C@@H]2CCCN2C(=O)[C@H](CC(C)C)NC(=O)[C@@H](C)C(=O)[C@H](C(C)C)OC(=O)C[C@@H]1O (stereo partly drawn)	0.314 µM (active)	–	–
COc1ccc(C2NC(=S)Nc3c2c(=O)oc2c3ccc3ccccc32)cc1 (stereo not drawn)	75.7 µM (inactive)	45.7 µM (inactive)	–
CC1(C)NC(C(=O)c2ccccc2)=[N+]([O-])C1(O)c1ccccc1 (stereo not drawn)	> 100 µM (inactive)	–	–
Cc1c2c(OCCN3CCCCC3)nn(C)c(=O)c2c(C)n1-c1ccccc1	54.1 µM (inactive)	44.4 µM (inactive)	–
CCN(CC)CCn1c2cc3c(cc2c(=O)c2cccnc21)OCO3	> 10 µM (inactive)	> 10 µM (inactive)	–
CC1(C)C(=NNC(=S)NN)C(C)(C)C1=NNC(=S)NN	–	–	GI50 [3]: > 100 µM (inactive); GI50 [5]: > 100 µM (inactive); GI50 [6]: > 100 µM (inactive); GI50 [7]: > 100 µM (inactive); GI50 [9]: > 100 µM (inactive)
CCOC(=O)CCC(NC(=O)c1ccc(N2CCN(c3c(C)nc(N)nc3N)CC2)cc1)C(=O)OCC (stereo not drawn)	> 100 µM (inactive)	> 100 µM (inactive)	–
COc1ccccc1NC(=S)NNC(=O)c1cc(-c2ccccc2)nc2ccccc12	16.6 µM (inactive)	8.26 µM (inactive)	–
O=C(Sc1n[nH]c(=O)[nH]c1=O)c1cccc2nc3ccccc3nc12	20 µM (inactive)	8.36 µM (inactive)	–
